Test results as given in ChEMBL document CHEMBL1143774, “Parallel strategies for the preparation and selection of liver-targeted glucocorticoid receptor antagonists” (Bioorg Med Chem Lett, 2007).
pKi: −log10 of the molar value.

Assays:
Glucocorticoid receptor [1] = biological target: T1, Glucocorticoid receptor (Homo sapiens, UniProt P04150); assay: Displacement of radiolabeled Dexamethasone from human GR
T1 sequence (P04150 whole entry): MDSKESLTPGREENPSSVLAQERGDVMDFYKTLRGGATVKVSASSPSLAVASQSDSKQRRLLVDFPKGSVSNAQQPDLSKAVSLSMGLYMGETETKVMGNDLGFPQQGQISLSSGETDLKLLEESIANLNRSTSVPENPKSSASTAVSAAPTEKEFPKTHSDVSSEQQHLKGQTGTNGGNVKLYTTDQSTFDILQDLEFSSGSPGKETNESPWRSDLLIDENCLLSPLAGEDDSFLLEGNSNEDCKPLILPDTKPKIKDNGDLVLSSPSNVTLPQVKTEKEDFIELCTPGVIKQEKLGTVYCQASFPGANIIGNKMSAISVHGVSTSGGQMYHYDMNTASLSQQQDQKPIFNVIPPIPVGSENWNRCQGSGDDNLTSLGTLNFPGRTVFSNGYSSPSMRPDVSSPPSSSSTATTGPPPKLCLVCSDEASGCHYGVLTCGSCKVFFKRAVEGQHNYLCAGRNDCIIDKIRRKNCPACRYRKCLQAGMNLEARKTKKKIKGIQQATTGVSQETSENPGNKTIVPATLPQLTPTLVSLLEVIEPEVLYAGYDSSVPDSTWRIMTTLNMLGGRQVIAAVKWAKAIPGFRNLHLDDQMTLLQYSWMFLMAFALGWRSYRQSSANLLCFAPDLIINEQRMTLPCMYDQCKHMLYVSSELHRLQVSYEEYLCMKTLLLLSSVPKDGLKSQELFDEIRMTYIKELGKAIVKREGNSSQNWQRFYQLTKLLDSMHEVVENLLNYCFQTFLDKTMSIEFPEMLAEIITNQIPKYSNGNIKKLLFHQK

Glucocorticoid receptor [2] = biological target: T1, Glucocorticoid receptor; assay: Inhibition of human GR expressed in hGRAF cells; type: cell-based
Glucocorticoid receptor [3] = biological target: T1, Glucocorticoid receptor; assay: Inhibition of human GR transcriptional activation by HepTAT cells; type: cell-based
Rattus norvegicus [4] = assay: Inhibition of prednisilone-induced TAT level in Sprague-Dawley rats at 100 mg/kg, po; type: functional
Rattus norvegicus [5] = assay: Inhibition of prednisilone-induced glycogen depostion in Sprague-Dawley rats at 100 mg/kg, po; type: functional
Rattus norvegicus [6] = assay: Inhibition of prednisilone-induced lymphopenia in Sprague-Dawley rats at 100 mg/kg, po; type: functional
[7] = Ratio of drug level in liver to plasma in Sprague-Dawley rat at 1 hr; type: ADME, tissue-based; conditions: liver and plasma
[8] = Drug level in Sprague-Dawley rat liver after 1 hr; type: ADME, tissue-based; conditions: read-out: Activity

CC#C[C@]1(O)CC[C@H]2[C@@H]3CCC4=CC(=O)CCC4=C3[C@@H](c3ccc(N(C)CC(=O)Nc4nc(CC(=O)O)cs4)cc3)C[C@@]21C
pKi (Glucocorticoid receptor [1]): 7.46 | pKi (Glucocorticoid receptor [2]): 6.12 | pKi (Glucocorticoid receptor [3]): 7.51

CC#C[C@]1(O)CC[C@H]2[C@@H]3CCC4=CC(=O)CCC4=C3[C@@H](c3ccc(N(C)CC(=O)N(Cc4ccccc4)Cc4ccc(C(=O)O)cc4)cc3)C[C@@]21C
pKi (Glucocorticoid receptor [1]): 8.96 | pKi (Glucocorticoid receptor [2]): 7.41 | pKi (Glucocorticoid receptor [3]): 7.24

CC#C[C@]1(O)CC[C@H]2[C@@H]3CCC4=CC(=O)CCC4=C3[C@@H](c3ccc(N(C)Cc4cccc(C(=O)O)c4)cc3)C[C@@]21C
pKi (Glucocorticoid receptor [1]): 8.52 | pKi (Glucocorticoid receptor [2]): 7.52 | pKi (Glucocorticoid receptor [3]): 6.95

CC#C[C@]1(O)CC[C@H]2[C@@H]3CCC4=CC(=O)CCC4=C3[C@@H](c3ccc(N(C)Cc4ccc(C(=O)O)cc4)cc3)C[C@@]21C
pKi (Glucocorticoid receptor [1]): 8.74 | pKi (Glucocorticoid receptor [2]): 7.92 | pKi (Glucocorticoid receptor [3]): 7.28 | inhibition in vivo at 100 mg/kg (Rattus norvegicus [4]): 106% | inhibition in vivo at 100 mg/kg (Rattus norvegicus [5]): 94% | inhibition in vivo at 100 mg/kg (Rattus norvegicus [6]): 123%

CC#C[C@]1(O)CC[C@H]2[C@@H]3CCC4=CC(=O)CCC4=C3[C@@H](c3ccc(N(C)CC(=O)N(C)Cc4cccc(C(=O)O)c4)cc3)C[C@@]21C
inhibition in vivo at 100 mg/kg (Rattus norvegicus [4]): 20% | inhibition in vivo at 100 mg/kg (Rattus norvegicus [5]): 9% | inhibition in vivo at 100 mg/kg (Rattus norvegicus [6]): -10%

CC#C[C@]1(O)CC[C@H]2[C@@H]3CCC4=CC(=O)CCC4=C3[C@@H](c3ccc(N(C)C)cc3)C[C@@]21C [MIFEPRISTONE]
inhibition in vivo at 100 mg/kg (Rattus norvegicus [4]): 101% | inhibition in vivo at 100 mg/kg (Rattus norvegicus [5]): 77% | inhibition in vivo at 100 mg/kg (Rattus norvegicus [6]): 104%

CC#C[C@]1(O)CC[C@H]2[C@@H]3CCC4=CC(=O)CCC4=C3[C@@H](c3ccc(N(C)Cc4ccc(C(C)C(=O)O)cc4)cc3)C[C@@]21C (stereo partly drawn)
Kp at 1 h [7]: 17 | concentration at 1 h [8]: 37000 ng/g

CC#C[C@]1(O)CC[C@H]2[C@@H]3CCC4=CC(=O)CCC4=C3[C@@H](c3ccc(N(C)Cc4ccc(C(=O)NCC(=O)O)cc4)cc3)C[C@@]21C
pKi (Glucocorticoid receptor [1]): 9.22 | pKi (Glucocorticoid receptor [2]): 7.05 | pKi (Glucocorticoid receptor [3]): 7.44 | inhibition in vivo at 100 mg/kg (Rattus norvegicus [4]): 48% | inhibition in vivo at 100 mg/kg (Rattus norvegicus [5]): 47% | inhibition in vivo at 100 mg/kg (Rattus norvegicus [6]): 40%

CC#C[C@]1(O)CC[C@H]2[C@@H]3CCC4=CC(=O)CCC4=C3[C@@H](c3ccc(N(C)CC(=O)N(Cc4ccc(C(=O)O)cc4)c4ccc(Br)cc4)cc3)C[C@@]21C
pKi (Glucocorticoid receptor [1]): 9.05 | pKi (Glucocorticoid receptor [2]): 7.48 | pKi (Glucocorticoid receptor [3]): 7.48

CC#C[C@]1(O)CC[C@H]2[C@@H]3CCC4=CC(=O)CCC4=C3[C@@H](c3ccc(N(C)Cc4ccc(CC(=O)O)cc4)cc3)C[C@@]21C
pKi (Glucocorticoid receptor [1]): 8.74 | pKi (Glucocorticoid receptor [2]): 8.36 | pKi (Glucocorticoid receptor [3]): 7.49 | inhibition in vivo at 100 mg/kg (Rattus norvegicus [4]): 95% | inhibition in vivo at 100 mg/kg (Rattus norvegicus [5]): 101% | inhibition in vivo at 100 mg/kg (Rattus norvegicus [6]): 117%

CC#C[C@]1(O)CC[C@H]2[C@@H]3CCC4=CC(=O)CCC4=C3[C@@H](c3ccc(N(C)Cc4ccc(C(=O)N[C@H](CCSC)C(=O)O)cc4OC)cc3)C[C@@]21C
inhibition in vivo at 100 mg/kg (Rattus norvegicus [4]): -27% | inhibition in vivo at 100 mg/kg (Rattus norvegicus [5]): 8% | inhibition in vivo at 100 mg/kg (Rattus norvegicus [6]): -4%

CC#C[C@]1(O)CC[C@H]2[C@@H]3CCC4=CC(=O)CCC4=C3[C@@H](c3ccc(N(C)CCCCC(=O)O)cc3)C[C@@]21C
pKi (Glucocorticoid receptor [1]): 8.32 | pKi (Glucocorticoid receptor [2]): 7.82 | pKi (Glucocorticoid receptor [3]): 6.90

CC#C[C@]1(O)CC[C@H]2[C@@H]3CCC4=CC(=O)CCC4=C3[C@@H](c3ccc(N(C)CC(=O)Nc4ccc(C(=O)O)cc4)cc3)C[C@@]21C
pKi (Glucocorticoid receptor [1]): 8.57 | pKi (Glucocorticoid receptor [2]): 7.04 | pKi (Glucocorticoid receptor [3]): 7.12

CC#C[C@]1(O)CC[C@H]2[C@@H]3CCC4=CC(=O)CCC4=C3[C@@H](c3ccc(N(C)CC(=O)N(C)c4ccc(C(=O)O)cc4)cc3)C[C@@]21C
pKi (Glucocorticoid receptor [1]): 9.30 | pKi (Glucocorticoid receptor [2]): 7.68 | pKi (Glucocorticoid receptor [3]): 7.19

CC#C[C@]1(O)CC[C@H]2[C@@H]3CCC4=CC(=O)CCC4=C3[C@@H](c3ccc(N(C)Cc4ccc(C(=O)NCc5cccc(C(=O)O)c5)cc4)cc3)C[C@@]21C
inhibition in vivo at 100 mg/kg (Rattus norvegicus [4]): 3% | inhibition in vivo at 100 mg/kg (Rattus norvegicus [5]): -12% | inhibition in vivo at 100 mg/kg (Rattus norvegicus [6]): -10%
